Entries after “also recorded” stand apart in the source; their conditions may differ.

The target of series [1] is T1, recombinant human enzyme Cdc25A (Homo sapiens, UniProt P30304).
T1 construct: purchased Upstate Biotechnology (Lake Placid, N.Y.)
T1 sequence (P30304 1-524): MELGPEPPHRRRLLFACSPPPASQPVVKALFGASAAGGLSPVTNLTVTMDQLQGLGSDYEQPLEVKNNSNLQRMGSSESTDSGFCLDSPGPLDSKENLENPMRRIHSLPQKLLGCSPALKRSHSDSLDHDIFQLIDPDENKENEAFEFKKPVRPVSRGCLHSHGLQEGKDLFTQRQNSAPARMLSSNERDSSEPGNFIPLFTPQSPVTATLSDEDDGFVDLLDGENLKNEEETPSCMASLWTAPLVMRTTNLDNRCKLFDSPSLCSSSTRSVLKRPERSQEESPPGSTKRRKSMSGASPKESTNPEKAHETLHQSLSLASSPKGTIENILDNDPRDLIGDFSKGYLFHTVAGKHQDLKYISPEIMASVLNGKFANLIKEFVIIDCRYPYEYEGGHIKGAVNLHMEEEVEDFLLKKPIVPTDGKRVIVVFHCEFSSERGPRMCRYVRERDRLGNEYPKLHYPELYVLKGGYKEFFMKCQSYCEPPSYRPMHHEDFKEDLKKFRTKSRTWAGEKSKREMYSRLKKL
As to the kind of experiment: Cdc25A phosphatase assay (OMFP substrate), inhibition of Cdc25A. As to conditions: FIG. 1; inhibition calculated as a percentage of the solvent control. The series is classed as biochemical. The procedure: Therefore, one method of […] screening of the compounds for anti-cancer activity is to test the activity of a particular compound for the ability to inhibit Cdc 25-type phosphatases. The results of one such test are shown in Example 161 below, and FIG. 1.
The phosphatase assay was performed in a 96-well microtiter plate using recombinant human enzyme Cdc25A purchased from Upstate Biotechnology (Lake Placid, N.Y.). Stock solutions of the test compounds were prepared in DMSO. Five μl of suitable dilutions of the compounds were added to the assay. The final volume of the assay was 100 μl. Twenty units of Cdc25A were pre-incubated with the test compounds at 37° C. for 10 min in the reaction mixture containing 100 mM Tris-HCl, pH 8.2, 40 mM NaCl, 1 mM DTT and 20% glycerol. The reaction was initiated by addition of the enzyme substrate […] (OMFP; Sigma, St. Louis, Mo.) at a final concentration of 40 μM and incubated at room temperature for 1 hour. This substrate allows fluorometric determination of enzyme activity. OMFP is readily metabolized to the fluorescent O-methylfluorescein by the enzyme Cdc25A, thus the absorbance of each reaction sample was determined at 477 nm using a plate reader (SpectraMax 340, Molecular Devices, Sunnyvale, Calif.). […] Inhibition of Cdc25A activity by test compounds was calculated as a percentage of the solvent control.

Series [2] has as its system breast cancer cell line MDA-MB468. As to the kind of experiment: MTT assay, human breast cancer cells. The series is classed as cell-based. The conditions noted are these: concentrations in the range of 10^−7-10^−5 M or higher, FIGS. 2, 17. The source says: (§1) The anti-cancer activity of some of the compounds described herein have been tested in one type of such in vitro assay, as described in the examples herein, using a microculture assay with 3-(4,5-dimethylthiazol-2-yl)-2,5-diphenyltetrazolium bromide (“MTT”). This assay has an advantage over in vivo assay in that results are obtained within a week as opposed to several months. The assay can be carried out in 96-well microtiter plates. The MTT assay is based on the production of a dark blue formazan product by dehydrogenase in the mitochondria of live tumor cells after exposure to drug for 6 days [M. C. Alley, D. A. Scudiero, A. Monks, M. L. Hursey, M. J. Czerwinski, D. L. Fine, B. J. Abbout, J. G. Mayo, R. H. Shoemaker and M. R. Boyd, Cancer Res., 48, 589, 1988]. Thus, only live cells are stained and can be measured at 595 nm. Anti-cancer activity can be reported as percent of the tumor cell growth in the presence of compound at a defined dose compared to control/vehicle treated tumor cells. The results of some such screening assays are given in Examples 162a and 162b, and in FIGS. 2, 3, and 15-18.
(§2) The following human cancer cell lines were used to detect anti-cancer activity in the compounds of the invention.
The breast cancer cell line MDA-MB468 served to detect anti-breast cancer activity.
(§3) Cell lines were purchased from American Type Culture Collection (ATCC).
(§4) The cancer cell cultures were grown as recommended by the ATTC manuals. A549 cells and BX-PC-3 were grown in DME Dulbecco's modified Eagle's medium containing 4500 mg/L glucose; 4 mM L-glutamine; 10 U/ml Pen-G; 10 mcg/ml […] and 10% fetal calf serum (FCS). PC-3 and MDA-MB468 cells were grown in RPMI medium 1640 containing 2 mM L-glutamine; 10 U/ml Pen-G; 10 mcg/ml Streptomycin and 10% FCS. Cells were kept at 6% CO2 and 37° C. Cells were seeded on day zero in 96-well format tissue culture plates at suitable densities the day before starting treatment, in the media indicated above.
(§5) On day one, the compounds of the invention were added to the culture media of growing cells, containing 10% FCS. The cell media contained the compounds of the invention at one of six concentrations: […], 5×10^−8, 1×10^−7, 5×10^−7, 1×10^−6, and 1×10^−5M. 0.1% DMSO was used as vehicle control, and never exceeded 0.1% final concentration. On day four the media was removed and replaced with fresh media containing the compounds of the invention and FCS.
(§6) The assay is based on the cleavage of the yellow tetrazolium salt MTT to purple formazan crystals by dehydrogenase activity in active mitochondria. This conversion only occurs in living cells with intact/functional mitochondria.
(§7) On day five 10 μl of 5 mg/ml MTT dye are added to each well containing a cell culture. Cells are incubated for additional 4 hours at 6% CO2 and 37° C. Reaction is then stopped by adding 100 μl/well of a solubilization solution consisting of 10% Sodium Dodecyl Sulfate (SDS) and 10 mM HCl On day 6 the formazan crystals formed are solubilized and the resulting colored solution is quantified using a scanning multiwell spectrophotometer at a wavelength of 595 nm.
For orientation: Tetrazolium dyes change colour on reduction, which living cells bring about.

Series [3] deals with prostate cancer cell line PC-3. Description: MTT assay, human prostate cancer cells. As to conditions: concentrations in the range of 10^−7-10^−5 M or higher, FIGS. 2, 16. The series is classed as cell-based.
Description: as §1, §2
The prostate cancer cell line PC-3 was used to detect […]
as §3, §4, §5, §6, §7

Series [4] deals with non-small-cell lung cancer cell line A549. Description: MTT assay, human non-small-cell lung cancer cells. As to conditions: concentrations in the range of 10^−7-10^−5 M or higher, FIGS. 3, 15. The series is classed as cell-based.
Description: as §1, §2
The non-small-cell lung cancer cell line A549 was used to detect anti-lung cancer activity
as §3, §4, §5, §6, §7

Series [5] relates to pancreatic cancer cell line BX-PC-3. As to the kind of experiment: MTT assay, human pancreatic cancer cells. In kind it is cell-based. As to conditions: concentrations in the range of 10^−7-10^−5 M or higher, FIGS. 3, 18.
Description: as §1, §2
The pancreatic cancer cell line BX-PC-3 was used to detect anti-pancreatic cancer activity.
as §3, §4, §5, §6, §7

Turning to `O=C1N=C(N2CCCCC2)S/C1=C\c1cccc(-c2ccc(O)c(C34CC5CC(CC(C5)C3)C4)c2)c1` [Compound 3, 5-[3-(3-Adamantan-1-yl-4-hydroxy-phenyl)benzylidene]-2-piperidin-1-yl-thiazol-4-one], the melting point (commonly the temperature of the solid-liquid transition) lay within 311 to 312 °C. In addition, the “selective inhibition of Cdc25 as compared to the dual specificity phosphatase MKP-1” value in series [1] is on record as “selective inhibition of Cdc25”. The “anticancer cell activity / killing of breast cancer cells” value in series [2] is listed as “kill significant percentages of the cells; also recorded: strong anticancer cell activity”. Moreover, in series [3], the “anticancer cell activity / killing of prostate cancer cells” value is given as “kill significant percentages of the cells; also recorded: strong anticancer cell activity”. In addition, the “anticancer cell activity / killing of non-small-cell lung cancer cells” value in series [4] was “kill significant percentages of the cells; also recorded: strong anticancer all activity”. In series [5], the “anticancer cell activity / killing of pancreatic cancer cells” value is given as “kill significant percentages of the cells; also recorded: strong anticancer all activity”.

The record behind these values is patent US20040097566A1, “2-Substituted thiazolidinone and oxazolidinone derivatives for the inhibition of phosphatases and the treatment of cancer” (priority 2001, published 2004).
